{
  "source": "patent US11717498B2",
  "about": "“Methods of treatment using amphetamine controlled release, prodrug, and abuse deterrent dosage forms” (CHEMAPOTHECA, LLC, priority 2013, dated 2023)",
  "origin": "cited, not measured here",
  "settings": "l-form versus d-form",
  "data": [
    {"smiles": "CC(C)NC[C@H](O)COc1cccc2ccccc12", "note": "[l-form of propranolol, propranolol]", "values": [
      {"measurement": "potency relative to the d-form", "value": "about 100 times"}
    ]}
  ]
}
